Data from US12338203B2 (TAISHO PHARMACEUTICAL CO., LTD., priority 2019, dated 2025).

molecular target: T1, human LPAR1 (Homo sapiens, UniProt Q92633); experiment: Test Example 1: antagonism against response of LPA-induced increase in intracellular Ca2+ concentration in RH7777 cells stably expressing human LPAR1; format: cell-based; settings: RH7777 cells stably expressing human LPAR1; Fluo-4 fluorescence, FDSS6000; read-out: IC50 value (concentration producing 50% antagonism against response of LPA-induced increase in intracellular Ca2+ concentration) (converted)
T1 construct: expressed in transfected cells
Method in brief: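 RH7777 cells stably transfected with human LPAR1 were preincubated with test compound 30 min at 37 °C in HBSS/20 mM HEPES/probenecid/0.05% BSA buffer, pH 7.4, then LPA-stimulated.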

T1 sequence (Q92633 whole entry): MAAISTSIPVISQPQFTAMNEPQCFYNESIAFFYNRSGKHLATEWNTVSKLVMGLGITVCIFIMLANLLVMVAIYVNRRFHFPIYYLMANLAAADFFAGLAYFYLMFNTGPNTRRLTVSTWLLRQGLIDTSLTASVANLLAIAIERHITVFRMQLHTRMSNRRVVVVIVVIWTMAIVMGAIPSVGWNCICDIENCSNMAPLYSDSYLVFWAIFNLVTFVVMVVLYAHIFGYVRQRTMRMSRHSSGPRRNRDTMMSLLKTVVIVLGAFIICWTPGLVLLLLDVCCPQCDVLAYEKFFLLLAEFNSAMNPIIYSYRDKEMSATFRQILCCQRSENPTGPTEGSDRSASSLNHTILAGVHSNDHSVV

Row | Structure (SMILES) | IC50 [nM]
1 | CCOc1cc([C@@H](C)N(CCCCc2ccccc2)C(=O)NC2(C(=O)O)CCC2)cc(OCC)c1C(C)O (single isomer, unassigned) [Example 1-22] | 1.47
2 | COc1cc([C@@H](C)N(CCOCc2ccccc2)C(=O)NC2(C(=O)O)CC(F)(F)C2)cc(OC)c1C [Example 4-164] | 3.26
3 | CCOc1cc([C@@H](C)N(CCCCc2ccccc2)C(=O)NC2(C(=O)O)CCOCC2)cc(OCC)c1C1CC1 [Example 1-155] | 0.997
4 | CCOc1cc([C@@H](C)N(CCO[C@@H](C)c2ccccc2)C(=O)NC2(C(=O)O)CCC2)c(Cl)c(OCC)c1C(C)=O [Example 5-30] | 2.15
5 | CCOc1cc(C(C)N(CCCCc2ccccc2)C(=O)NC2(CC(=O)O)Cc3ccccc3C2)cc(OCC)c1C (stereo not drawn) [Example 1-147] | 40.6
6 | CCOc1cc(C(C)N(CCCCc2ccccc2)C(=O)NC2(C(=O)O)CC(F)(F)C2)cc(OCC)c1C(C)(C)O (stereo not drawn) [Example 1-32] | 8.93
7 | CCOc1cc(C(C)N(CCOCc2ccccc2)C(=O)NC2(C(=O)O)CCC2)c(Cl)c(OCC)c1C(C)=O (stereo not drawn) [Example 5-189] | 1.46
8 | CCOc1cc(C(C)N(CCCCc2ccccc2)C(=O)NC2CCC(C(=O)O)C2)cc(OCC)c1C(C)=O (stereo not drawn) [Example 1-139] | 3.09
9 | CCOc1c(C(C)=O)ccc([C@@H](C)N(CCCC(F)(F)c2ccccc2)C(=O)NC2(C(=O)O)CC(OCC)C2)c1C (stereo partly drawn) [Example 4-72] | 3.34
10 | CCOc1cc([C@@H](C)N(CCCC(F)(F)c2ccccc2)C(=O)NC2(C(=O)O)CCC2)cc(OCC)c1C(C)O (stereo partly drawn) [Example 4-53] | 1.72
11 | CCOc1cc(C(C)N(CCCCc2ccccc2F)C(=O)NC2(C(=O)O)CC(F)(F)C2)cc(OCC)c1C (stereo not drawn) [Example 4-8] | 8.87
12 | CCOc1cc(C(C)N(CCCCc2ccccc2)C(=O)NC2(C(=O)O)CC(OCC)C2)cc(OCC)c1C1CC1 (stereo not drawn) [Example 1-101] | 1.44
13 | CCOc1cc([C@@H](C)N(CCCCc2ccccc2)C(=O)N[C@H]2COC[C@H]2C(=O)O)cc(OCC)c1C(C)=O [Example 1-162] | 3.92
14 | CCOc1cc(OCC)cc(C(C)N(CCCCc2ccccc2)C(=O)NC2(C(=O)O)Cc3ccccc3C2)c1 (stereo not drawn) [Example 5-11] | 79.7
15 | C=Cc1c(OCC)cc(C(C)N(CCCCc2ccccc2)C(=O)NC2(C(=O)O)CC(F)(F)C2)cc1OCC (stereo not drawn) [Example 1-53] | 3
16 | COc1cc(C(C)N(CCOCc2ccccc2)C(=O)NC2(C(=O)O)CCOCC2)cc(OC)c1C1CC1 (stereo not drawn) [Example 5-173] | 34.7
17 | CCOc1cc(C(C)N(CCO[C@@H](C)c2ccccc2)C(=O)NC2(C(=O)OC(C)(C)C)CC(OCC)C2)cc(OCC)c1C(C)=O (stereo partly drawn) [Example 6-14] | 3530
18 | CCOc1cc(C(C)N(CCCCc2ccccc2)C(=O)NC2(C(=O)O)CC(F)(F)C2)cc(OCC)c1C1CC1 (stereo not drawn) [Example 1-25] | 2.71
19 | CCOc1cc([C@@H](C)N(CCO[C@@H](C)c2ccccc2)C(=O)N[C@]2(C(=O)O)C[C@H](OCC)C2)c(Cl)c(OCC)c1C(C)O (stereo partly drawn) [Example 5-63] | 8.05

Row | Structure (SMILES) | IC50 [nM]
20 | COc1cc(C(C)N(CCCn2cc(C)cn2)C(=O)NC2(C(=O)O)CC(F)(F)C2)cc(OC)c1C (stereo not drawn) [Example 4-26] | 1830
21 | CCOc1cc(C(C)N(CCO[C@@H](C)c2ccccc2)C(=O)NC2(C(=O)O)CC(OCC)C2)c(Cl)c(OCC)c1C1CC1 (stereo partly drawn) [Example 5-222] | 1.79
22 | CCOc1cc([C@@H](C)N(CCO[C@@H](C)c2ccccc2)C(=O)NC2(C(=O)O)CC(OC)C2)cc(OCC)c1C(C)O (stereo partly drawn) [Example 4-126] | 3.91
23 | CCOc1cc([C@@H](C)N(CCC(F)(F)Cc2ccccc2)C(=O)N[C@]2(C(=O)O)C[C@@H](OC)C2)cc(OCC)c1C(C)=O [Example 4-89] | 7.59
24 | CCOc1cc([C@@H](C)N(CCO[C@@H](C)c2ccccc2)C(=O)N[C@]2(C(=O)O)C[C@@H](OCC)C2)cc(OCC)c1C(C)O (stereo partly drawn) [Example 4-135] | 5.33
25 | CCOc1cc([C@@H](C)N(CCCCc2ccccc2)C(=O)NC2(C(=O)O)CC(N3CCOCC3)C2)cc(OCC)c1C (stereo partly drawn) [Example 1-110] | 20.2
26 | CCC(c1cc(OC)c(C)c(OC)c1)N(CCCCc1ccccc1)C(=O)NC1(C(=O)O)CC(F)(F)C1 (stereo not drawn) [Example 3-3] | 30.1
27 | COc1cc(C(CO)N(CCCCc2ccccc2)C(=O)NC2(C(=O)O)CCCC2)cc(OC)c1C (stereo not drawn) [Example 3-7] | 74.5
28 | CCOC1CC(NC(=O)N(CCOC(C)c2ccccc2)C(C)c2cc(OC)c(C)c(OC)c2C)(C(=O)O)C1 (stereo not drawn) [Example 5-170] | 6.25
29 | CCOc1cc(C(C)N(CCCCc2ccccc2)C(=O)NC2(C(=O)O)CC(OCC)C2)c(Cl)c(OCC)c1C(C)=O (stereo not drawn) [Example 5-50] | 3.1
30 | CCOc1c(C(C)=O)ccc([C@@H](C)N(CCO[C@@H](C)c2ccccc2)C(=O)NC2(C(=O)O)CC2)c1C [Example 4-113] | 8.95
31 | CCOc1cc(C(C)N(CCCCc2ccccc2)C(=O)NC2(CC(=O)O)CCCC2)cc(OCC)c1C (stereo not drawn) [Example 1-146] | 24.3
32 | CCOc1cc(C(C)N(CCCCc2ccccc2)C(=O)NC2(C(=O)O)CC(F)(F)C2)cc(OCC)c1C(C)=O (stereo not drawn) [Example 1-56] | 33
33 | CCOc1cc(C(C)N(CCOCc2ccccc2)C(=O)NC2(c3nn[nH]n3)CC2)cc(OCC)c1C(C)=O (stereo not drawn) [Example 10-5] | 2.85
34 | CCOc1cc(C(C)N(CCOCc2ccccc2)C(=O)NC2(C(=O)O)CCC2)c(C)c(OCC)c1C (stereo not drawn) [Example 5-193] | 2
35 | CCOc1cc([C@@H](C)N(C(=O)NC2(C(=O)O)CC(F)(F)C2)C2CC(Cc3ccccc3)C2)cc(OCC)c1C (stereo partly drawn) [Example 4-43] | 37.2
36 | CCOc1c(C(C)=O)ccc([C@@H](C)N(CCCC(F)(F)c2ccccc2)C(=O)NC2(C(C)=O)CC(OCC)C2)c1C (stereo partly drawn) [Example 4-71] | 8.06
37 | CCOc1cc([C@@H](C)N(CCCCc2ccccc2)C(=O)NC2(C(=O)O)CN(C(C)=O)C2)cc(OCC)c1C [Example 1-159, 1-Acetyl-3-({[(1R)-1-(3,5-Diethoxy-4-Methylphenyl)Ethyl](4-Phenylbutyl) Carbamoyl}Amino) Azetidine-3-Carboxylic Acid] | 2.56
38 | CC(c1cc(C(F)(F)F)cc(C(F)(F)F)c1)N(CCCCc1ccccc1)C(=O)NC1(C(=O)O)CC(F)(F)C1 (stereo not drawn) [Example 5-24] | 75.8

Row | Structure (SMILES) | IC50 [nM]
39 | CCOc1cc([C@@H](C)N(CCCCc2ccccc2)C(=O)NC2(C(=O)NS(N)(=O)=O)CC(F)(F)C2)cc(OCC)c1C(C)=O [Example 7-4, 1-({[(1R)-1-(4-Acetyl-3,5-Diethoxyphenyl)Ethyl](4-Phenylbutyl) Carbamoyl}Amino)-3,3-Difluoro-N-Sulfamoylcyclobutane-1-Carboxamide] | 3.42
40 | CCOc1cc([C@@H](C)N(CCO[C@@H](C)c2ccccc2)C(=O)N[C@]2(C(=O)O)C[C@@H](OCC)C2)c(Cl)c(OCC)c1C(C)O (single isomer, unassigned) [Example 5-61] | 3.17
41 | CCOc1c(C(C)=O)ccc([C@@H](C)N(CCCCc2ccccc2)C(=O)NC2(C(=O)O)CC(OC)C2)c1C (stereo partly drawn) [Example 1-93] | 4
42 | CCOc1cc([C@@H](C)N(CCO[C@@H](C)c2ccccc2)C(=O)N[C@]2(C(=O)O)C[C@@H](OC)C2)c(C)c(OCC)c1C [Example 5-79] | 1.21
43 | CCOc1cc(C(C)N(CCCCc2ccccc2)C(=O)NC2CCC(C(=O)O)CC2)cc(OCC)c1C (stereo not drawn) [Example 1-143] | 200
44 | CCOc1cc([C@@H](C)N(CCCCc2ccccc2)C(=O)NC2CC(C(=O)O)N(C(C)=O)C2)cc(OCC)c1C(C)=O (stereo partly drawn) [Example 1-163] | 20.5
45 | CCOc1c(C(C)(C)O)ccc([C@@H](C)N(CCCCc2ccccc2)C(=O)NC2(C(=O)O)CC(OCC)C2)c1C (stereo partly drawn) [Example 1-104] | 10.3
46 | CCOc1cc([C@@H](C)N(CCCc2ccncc2)C(=O)NC2(C(=O)O)CC(F)(F)C2)cc(COC)c1C [Example 4-30] | 178
47 | CCOc1cc(OCC)cc(C(C)N(CCCCc2ccccc2)C(=O)NC2(C(=O)O)CC(F)(F)C2)c1 (stereo not drawn) [Example 5-1, 1-({[1-(3,5-Diethoxyphenyl)Ethyl](4-Phenylbutyl) Carbamoyl}Amino)-3,3-Difluorocyclobutane-1-Carboxylic Acid] | 99.6
48 | CCOc1c(C(C)=O)ccc([C@@H](C)N(CCCCc2ccccc2)C(=O)NC2(C(=O)O)CC2)c1C [Example 1-19] | 4.1
49 | CCOc1cc([C@@H](C)N(CCO[C@@H](C)c2ccccc2)C(=O)NC2(C(=O)O)CC(F)(F)C2)cc(OCC)c1C(C)=O [Example 4-117] | 2.52
50 | CCOc1c(C(C)=O)ccc([C@@H](C)N(CCCC(F)(F)c2ccccc2)C(=O)NC2(C(=O)O)CCOCC2)c1C [Example 4-78] | 8.44
51 | Cc1ccc(C(C)N(CCCCc2ccccc2)C(=O)NC2(C(=O)O)CC(F)(F)C2)cc1 (stereo not drawn) [Example 5-7] | 132
52 | CCOc1cc(C(C)N(CCCCc2ccccc2)C(=O)NC2(c3nc(=O)o[nH]3)CCCC2)cc(OCC)c1C (stereo not drawn) [Example 9-1, N-[1-(3,5-Diethoxy-4-Methylphenyl)Ethyl]-N′-[1-(5-Oxo-2,5-Dihydro-1,2,4-Oxadiazol-3-Yl)Cyclopentyl]-N-(4-Phenylbutyl) Urea] | 506
53 | CCOc1cc([C@@H](C)N(CCC2Cc3ccccc3C2)C(=O)NC2(C(=O)O)CC(F)(F)C2)cc(OCC)c1C [Example 4-21, 1-({[(1R)-1-(3,5-Diethoxy-4-Methylphenyl)Ethyl][2-(2,3-Dihydro-1H-Inden-2-Yl)Ethyl]Carbamoyl}Amino)-3,3-Difluorocyclobutane-1-Carboxylic Acid] | 2.74
54 | COc1cc(C(C)N(CCO[C@@H](C)c2ccccc2)C(=O)NC2(C(=O)O)CC(F)(F)C2)cc(OC)c1C1CC1 (stereo partly drawn) [Example 5-148] | 3.4
55 | CCOc1cc(C(C)N(CCCCc2ccccc2)C(=O)NC2(C(=O)O)CC(F)(F)C2)cc(OCC)c1C#N (stereo not drawn) [Example 1-41] | 6.15
56 | CCOc1cc([C@@H](C)N(CCC2Cc3ccccc3C2)C(=O)NC2(C(=O)O)CC(OC)C2)cc(OCC)c1C(C)=O (stereo partly drawn) [Example 4-22] | 7.62
57 | CCOc1cc(C(COC)N(CCCCc2ccccc2)C(=O)NC2(C(=O)O)CC(F)(F)C2)cc(OCC)c1C (stereo not drawn) [Example 3-10] | 114
